The values that follow come from patent US8921383B2, “Thiazolopyrimidine compounds” (Hoffmann-La Roche Inc., priority 2011, dated 2014).

The experiment addresses T1, purified recombinant human SYK360-635 (Homo sapiens, UniProt P43405).
T1 construct: truncated construct of Spleen Tyrosine Kinase aa 360-635; GST; made in house
The experiment is described as follows: SYK kinase assay: 33P γATP incorporation into biotinylated peptide substrate, IC50 determination. The experiment is classed as biochemical. Particulars: SYK 0.5 nM, ATP 20 μM, DYE peptide 5 μM, 30° C. 15 min; read-out: IC50 h-syk-gst-sf9-c (inactive-dephosphorylated). The method, then: Determination of IC50 of Spleen Tyrosine Kinase (SYK) Inhibition:
SYK kinase assay is a standard kinase assay adapted to a 96 well plate format. This assay is performed in 96-well format for IC50 determination with […] which represented 10 half log dilutions and a 40 μL reaction volume. The assay measures the incorporation of radiolabeled ^33P γATP into an N-terminally biotinylated peptide substrate, derived from naturally occurring phosphoacceptor consensus sequence (Biotin-11aa DY*E). Phosphorylated products were detected upon termination of reactions with EDTA and the addition of Streptavidin coated beads.
Assay plates: 96-well MultiScreen 0.65 um filter plates (Millipore Cat. No.: MADVNOB10)
BSA: Bovine Serum Albumin Fraction V, fatty acid free (Roche Diagnostics GmbH, Cat. No. 9100221) diluted to a final concentration of 0.1%
Assay Dilution Buffer (ADB): 50 mM HEPES, 0.1 mM EGTA, 0.1 mM Na Vanadate, 0.1 mM β-glycerophosphate, 10 mM MgCl2, 1 mM DTT, 0.1% BSA, pH 7.5
Bead wash buffer: 10 g/L PBS (Phosphate buffered saline) with 2M NaCl+1% phosphoric acid.
DMSO and the mixture was incubated for 10 min at RT.
The kinase reaction was initiated by the addition of 10 μL 4× substrate cocktail containing the DYE peptide substrate [0 or 5 μM], ATP [20 μM] and ^33PγATP [2 μCi/r×n]. After incubation at 30° C. for 15 min, the reaction was terminated by the transfer of 25 μL of the reaction sample to a 96 well 0.65 μm Millipore MADVNOB membrane/plate containing 200 μL 5 mM EDTA and 20% Streptavidine coated beads in PBS.
After the last wash membrane/plates were transferred to an adaptor plate, heat dried for 15 min at 60° C., and 50 μL scintillation cocktail was added to each well and 4 h later the amount of radioactivity was counted in a top counter.

Each structure is given as a SMILES string.

For `COc1ccc(Nc2nc(-c3cccc(/C=C/c4ccc(C(=O)O)cc4)c3)nc3scnc23)cc1OC` [Compound I-32, (E)-4-(3-(7-(3,4-Dimethoxyphenylamino)thiazolo[5,4-d]pyrimidin-5-yl)styryl)benzoic acid], the IC50 was found to be 60 nM.

Turning to `COc1ccc(Nc2nc(N3CCC(C(=O)NCCc4cc[nH]c(=O)c4)CC3)nc3scnc23)cc1OC` [Compound I-22, 1-(7-(3,4-Dimethoxyphenylamino)thiazolo[5,4-d]pyrimidin-5-yl)-N-(2-(2-oxo-1,2-dihydropyridin-4-yl)ethyl)piperidine-4-carboxamide], the IC50 was 4880 nM.
